Reference: patent US10849994B2, “Pharmaceutical composition comprising fluorine-18 labelled gases” (ASOCIACIÓN CENTRO DE INVESTIGACIÓN COOPERATIVA EN …, priority 2016, dated 2020)

Experiment: PET-CT ventilation imaging after inhalation of the radioactive gas
Format: in vivo, rat (Sprague-Dawley)
Settings: male rats
Protocol: Imaging studies were conducted with [^18F]CF4.
Male rats (n=2) weighing 350±14 g (Sprague-Dawley, Harlan, Udine, Italy) were used to perform PET studies. The animals were cared for and handled in accordance with the Guidelines for Accommodation and Care of Animals (European Convention for the Protection of Vertebrate Animals Used for Experimental and Other Scientific Purposes) and internal guidelines, and experimental procedures were approved by the Ethical Committee and local authorities.
The radioactive gas was administered by inhalation, by mixing the mixture [^18F]CF4/CF4/Ne obtained at the end of the production process (process A) with the oxygen carrier gas. With that aim, the system depicted in FIG. 3 was implemented.
PET studies were performed using an eXploreVista-CT small animal PET-CT system (GE Healthcare).
Step 1: Rats were anesthetized in an induction chamber using a mixture of 3-4% isoflurane in O2.
Step 2: Animals were rapidly moved into the PET-CT camera, were anaesthesia was maintained with a mixture of 1.5-2.0% isofluorane in O2. During the stay into the PET-CT camera, animals were kept normothermic using a heating blanket (Homeothermic Blanket Control Unit; Bruker). Regular breathing (frequency of 50±10 breaths/minute) was maintained by adjustment of anaesthetic conditions. Respiration and body temperature of the animals were monitored throughout the scan.
Step 3: At t=0 min, with the animal under anaesthesia, acquisition of PET images was started in list mode.
Step 4: At t=1 minute, the syringe pump was started and the radioactive gas ([^18F]CF4, diluted with Neon and non-radioactive CF4, 74 MBq, 2 mCi) was introduced in the main stream of oxygen and consequently administered to the animal.
Step 5: At t=2 minutes, the syringe pump was stopped, and image acquisition was continued until t=10 minutes.
Step 6: After finalising the PET image acquisition, a whole body CT scan was performed, providing anatomical information as well as the attenuation map, for the later image reconstruction.
Images were reconstructed (decay and CT-based attenuation corrected) with OSEM-2D. Twenty nine frames (3×20s, 10×10s, 4×20s and 12×30s) were defined to gain information about the spatiotemporal distribution of the radioactivity. PET images were analysed using PMOD image analysis software (PMOD Technologies Ltd, Zurich, Switzerland). Volumes of interest (VOIs) were manually drawn in the lungs on the CT images. VOIs were then transferred to the PET images and the concentration of radioactivity was obtained for each organ and time frame as cps/cm^3. All frames were finally summed and re-processed to get more accurate images of the distribution of radioactivity within the lungs.

Compound: FC(F)(F)[18F] [[^18F]CF4, ^18F-labelled carbon tetrafluoride]
- distribution of the radioactive gas in the lungs (summed PET-CT images, FIG. 8) (n=2, 74 MBq in O2/isoflurane, delivered t=1-2 min, all frames summed): uniform distribution of the radioactive gas in the lungs
- elimination of the radioactivity from the lungs after delivery of the radioactive gas is discontinued (n=2, after the syringe pump was stopped at t=2 min): almost complete elimination of the radioactivity is achieved in a few seconds
- time-activity curve of a VOI drawn in the whole lungs: plateau (FIG. 9) (n=2, during gas delivery): reached immediately after the onset of contrast agent administration
- distribution of the radioactive gas in the lungs (dynamic images) (n=2, dynamic PET frames): immediate distribution of the radioactive gas in the lungs
